Our source for the Km values is publication PMC9820208, “A Chloroplast-Localized Glucose-6-Phosphate Dehydrogenase Positively Regulates Stripe Rust Resistance in Wheat” (International Journal of Molecular Sciences, 2022).

In this experiment the test system is T1, TaG6PDH2 (TaG6PDH2-2D).
T1 construct: CDS in pET15b-sumo, E. coli BL21 (DE3), 6xHis and SUMO tags, about 75 kDa on gel; His-Trap FF purified fusion
Briefly: G6PDH activity, double-reciprocal plot ([…]/V vs. […]/[G6P]). The following applies: purified His-SUMO fusion; assay conditions only by reference; read-out: KmG6P. The experiment is classed as biochemical, Triticum aestivum.

Take `O=P(O)(O)OC[C@H]1OC(O)[C@H](O)[C@@H](O)[C@@H]1O` (stereo partly shown) [G6P, glucose-6-phosphate]: the Km was found to be 1980 µM.
